Results on one compound are retold here after patent US20220354957A1, “PEPTIDES TARGETING MACROPHAGES, AND CONJUGATES, COMPOSITIONS, AND USES THEREOF” (Twinpig Biolab, Inc., priority 2021, published 2022).

Molecules are shown by their SMILES.

One data set relates to TRAMP-C2 cells. Nature of the data set: Mouse model of prostate cancer (subcutaneous TRAMP-C2). Type of data set: in vivo. From the text: BALB/c and C57BL/6 (B6) wild-type mice were purchased from DBL. For the subcutaneous tumor model of melanoma and prostate cancer, CT26 (3×10^5 cells/mouse), B16F10 (1×10^6 cells/mouse) and TRAMP-C2 cells (1×10^6 cells/mouse) were mixed with Matrigel matrix (Corning) and inoculated subcutaneously into the right flank of the mice, and 4T1 (1×10^5 cells/mouse) cells mixed with Matrigel matrix and inoculated into a 4th mammary fat pad of the mice. TAMpepK, and MpepK peptides (200 nmol/kg) were injected intraperitoneally every 3 days, beginning at day 7 after tumor inoculation, and tumor volume was measured by electronic caliper. All tumor tissues were harvested after the end of the study and tumor weight was measured by an electronic balance.
Cells were harvested and lysed in PRO-PREP protein extraction solution (iNtRON, Bio Inc, Sungnam, Korea). Protein concentrations were measured with a Bradford Protein Assay Reagent kit (Bio-Rad, Richmond, CA, USA). Proteins were fractionated by 10% SDS-polyacrylamide gels electrophoresis (PAGE), and transferred onto polyvinylidene difluoride (PVDF) membranes. These were incubated with anti-arginase 1, anti-CD206, anti-caspase 3, anti-E-cadherin, anti-fibronectin, anti-PCNA, anti-TGF-β, anti-MMP9, and anti-β-actin Ab as primary antibodies. Goat anti-rabbit horseradish peroxidase-conjugated IgG or goat anti-mouse horseradish peroxidase-conjugated IgG (Abcam, Cambridge, Mass., USA) served as secondary antibodies. Protein bands were detected with a chemiluminescence reagent kit (SurModics).

The test system of data set [1] is M2 macrophages. Nature of the data set: Apoptosis and caspase-3 expression in THP-1-derived macrophages. Type of data set: cell-based, human. The procedure:
THP-1 cells were differentiated into macrophages by 24 h incubation with 100 nM PMA and polarized in M2 macrophages by incubation with 20 ng/ml of IL-4 and 20 ng/ml of IL-13 for 72 h. Polarized cells were treated with increasing concentrations of TAMpep and fragments of TAMpep (0.05-20 μM) for 24 h. Cell viability was analyzed using the CCK-8 assay: CCK-8 reagent (Enzo Life Sciences) was added to each well; incubation was continued for 2 hours, and absorbance was measured at 450 nm with a microplate reader (Molecular Devices).
THP-1 cells were seeded on cover glasses in 24-well plates and differentiated into M0, M1 and M2 macrophages. Cells were treated with 1 μM TAMpepK and MpepK for 1 h and incubated for 24 h after remove of peptides. Cells were washed, fixed with 4% paraformaldehyde for 10 minutes at […] and blocked with 0.1% normal goat serum for 1 hour. The cover glasses were then incubated with anti-caspase-3 antibody (1:50, rabbit polyclonal, Abcam) overnight at 4° C., and then washed and stained with Alexa 594-labelled goat anti-rabbit lgG (1:500, Invitrogen) at 37° C. for 1 hr. The cover glasses were mounted in Vectashield mounting medium (Vector Laboratories) with DAPI to visualize nuclei. Images photographed by fluorescence microscope (Leica).

Data set [2] can be described thus: Cell viability test (CCK-8) of dKLA-conjugated alanine-substituted peptides. The note with it: FIG. 25; read-out: cytotoxicity IC50 in M2 macrophages. It counts as cell-based, human. On the procedure: (§1) THP-1 monocytes were differentiated into macrophages (M0) by 24 h incubation with 100 nM phorbol 12-myristate 13-acetate (PMA, Sigma) followed by 24 h incubation in RPMI medium (Invitrogen). Macrophages were polarized in M1 macrophages (M1) by incubation with 20 ng/ml of IFN-γ (Prospec) and 100ng/m1 of LPS (Sigma). Macrophage M2 polarization(M2) was obtained by incubation with 20 ng/ml of interleukin (IL) 4 (Prospec) and 20 ng/ml of interleukin 13 (Pro spec).
(§2) […] Cell viability was analyzed using the CCK-8 assay: CCK-8 reagent (Enzo Life Sciences) was added to each well; incubation was continued for 2 hours, and absorbance was measured at 450 nm with a microplate reader (Molecular Devices).

For data set [3], the system named is M2 macrophages. The data set is described as above. Type of data set: cell-based, human. To be noted: 1.5 μM, 1 hour then 24 hours, CCK-8, compared to control M2 macrophage. The procedure: as §1, §2
The mark [4] stands for this setting: TRAMP-C2 in C57BL6J mice, i.p. every 3 days, vs PBS group.

`CC[C@H](C)[C@H](NC(=O)[C@H](CC(C)C)NC(=O)[C@H](C)NC(=O)[C@@H]1CCCN1C(=O)[C@H](CC(C)C)NC(=O)CNC(=O)[C@@H](NC(=O)[C@@H](NC(=O)[C@H](CC(C)C)NC(=O)[C@@H](NC(C)=O)C(C)C)[C@@H](C)O)[C@@H](C)O)C(=O)N[C@@H](CO)C(=O)N[C@@H](Cc1c[nH]c2ccccc12)C(=O)N[C@H](C(=O)N[C@@H](CCCCN)C(=O)N[C@@H](CCCNC(=N)N)C(=O)N[C@@H](CCCCN)C(=O)N[C@@H](CCCNC(=N)N)C(=O)N[C@@H](CCC(N)=O)C(=O)N[C@@H](CCC(N)=O)C(=O)NCC(=O)NCC(=O)NCC(=O)NCC(=O)N[C@@H](CO)C(=O)N[C@H](CCCCN)C(=O)N[C@H](CC(C)C)C(=O)N[C@H](C)C(=O)N[C@H](CCCCN)C(=O)N[C@H](CC(C)C)C(=O)N[C@H](C)C(=O)N[C@H](CCCCN)C(=O)N[C@H](CCCCN)C(=O)N[C@H](CC(C)C)C(=O)N[C@H](C)C(=O)N[C@H](CCCCN)C(=O)N[C@H](CC(C)C)C(=O)N[C@H](C)C(=O)N[C@H](CCCCN)C(=O)O)[C@@H](C)CC` [MpepK]: in the data set on TRAMP-C2 cells (setting [4]), the tumor volume entry is given as “significantly reduced” and the tumor weight entry is on record as “significantly reduced”. The “body weight of mice” value in the data set with TRAMP-C2 cells (TRAMP-C2 prostate cancer model) is “did not significantly change”. Besides, in the data set with TRAMP-C2 cells (prostate cancer model), the “E-cadherin (epithelial cell marker) in tumor tissues” value was “increased”; the “expression of PCNA (proliferative marker) in tumor tissues” value is “reduced”; the “expression of TGF-β and MMP9 in tumor tissues” value is given as “reduced”; the “vimentin and fibronectin (mesenchymal marker) in tumor tissues” value is “reduced”. In addition, the “expression of caspase-3 in M2 macrophages compared to other subtype macrophages” value with M2 macrophages [1] (1 μM, 1 h, then 24 h) is “increased”. In addition, the “apoptosis in M2 macrophages compared to M0 and M1 macrophages” value with M2 macrophages [1] (0.01-10 μM) was “induced apoptosis”. Also, in data set [2], the IC50 was found to be 1120 nM. In addition, the “cytotoxic effect in M2 macrophages” value with M2 macrophages [3] is given as “significant cytotoxic effects”.

By IC50 is commonly meant the midpoint of a concentration-inhibition curve.
